Literature values in patent publication US6174513A, “Stabilization of peptides and proteins for radiopharmaceutical use” (priority 1998, dated 2001).

Tested on: somatostatin receptors in a variety of human tumors

## C[C@@H](O)[C@@H]1NC(=O)[C@H](CCCCN)NC(=O)[C@@H](Cc2c[nH]c3ccccc23)NC(=O)[C@H](Cc2ccccc2)NC(=O)[C@@H](NC(=O)[C@H](N)Cc2ccccc2)CSSC[C@@H](C(=O)N[C@H](CO)[C@@H](C)O)NC1=O [Octreotide]
  Binding affinity to somatostatin receptors: very high binding affinity
